The source of these data is PMC11152041, “Tricarbonyl rhenium(I) complexes with 8-hydroxyquinolines: structural, chemical, antibacterial, and anticancer characteristics” (RSC Advances, 2024).

One data set has as its system E. coli ATCC25922. Put plainly: Broth microdilution MIC/MBC (ISO 20776-1). Type of data set: cell-based, Escherichia coli.
For another data set, the system named is S. aureus ATCC29213. Put plainly: Broth microdilution MIC/MBC (ISO 20776-1). Type of data set: cell-based, Staphylococcus aureus.
For another data set, the system named is P. aeruginosa ATCC27853. Put plainly: Broth microdilution MIC/MBC (ISO 20776-1). The format is cell-based, Pseudomonas aeruginosa.
The test system of a further data set is MCF-10A cells. The data set is described as follows: MTT cytotoxicity assay.
A further data set deals with MCF-7 cells. Put plainly: MTT cytotoxicity assay. The format is cell-based, human. To be noted: read-out: IC50 ± SD.
Another data set has as its system HL-60 cells. The data set is described as follows: MTT cytotoxicity assay. The format is cell-based, human. To be noted: read-out: IC50 ± SD.
For a further data set, the system named is PC-3 cells. Put plainly: MTT cytotoxicity assay. The format is cell-based, human. The note with it: read-out: IC50 ± SD.
The next data set has as its system SKOV-3 cells. The data set is described as follows: MTT cytotoxicity assay. The format is cell-based, human. To be noted: read-out: IC50 ± SD.
Data set [1] concerns solid tumor cells (SKOV-3, PC-3, MCF-7). Put plainly: MTT cytotoxicity assay, solid tumor cell lines taken together. The format is cell-based. To be noted: Homo sapiens, read-out: IC50 against solid tumor cells. As for the experimental part: For comparison, cisplatin was added to the cytotoxicity assays.
All experiments were performed in exponentially growing cultures.

For another data set, the system named is E. faecalis ATCC29212. The data set is described as follows: Broth microdilution MIC/MBC (ISO 20776-1). Type of data set: cell-based, Enterococcus faecalis.
Data set [2] concerns human cervical adenocarcinoma (HeLa) cells. The note with it: cited from earlier work.
A short description of data set [3]: Stability of the complexes in DMSO by NMR (exchange of pyrazole ligand with DMSO). Type of data set: physicochemical. On the procedure: In 3, after two days, an equilibrium between the Hdmpz and DMSO complexes stabilizes at 77% to 23% ratio (Fig. S34 ^†). Complex 3 can be recovered from the mixture by DMSO evaporation and the complex with water is even weaker. In the case of 3-phenylpyrazole in 8, the complex amount drops to 50% immediately after dissolving and after 24 h reaches ratio of 39% to 61% (Fig. S35 ^†).
The chemicals were purchased from Sigma-Aldrich and only 5-chloro-8-hydroxyquinoline from TCI. Their purity was 98 or 99% (for 3-phenylpyrazole – 97%). Anhydrous solvents with HPLC grade (≥99.9%) were applied. All chemicals were used without further purification. Elemental analysis was performed on an Elementar Vario EL III analyzer. UV-Vis spectra of methanol solutions were recorded in the 200–900 nm range with a Jasco V-750 spectrometer. Infrared absorption spectra in the 400–4000 cm^−1 range were recorded with a Thermo Scientific Nicolet iS10 FT-IR spectrometer using KBr pellets. ^1H and ^13C NMR spectra of DMSO-d6 or CDCl3 solutions were recorded at 25 °C on a Varian VNMRS-500 or Varian 400MR spectrometer operated at 499.8 and 400 MHz, respectively. The NMR spectra were referenced to the internal reference of tetramethylsilane (TMS).

[4] abbreviates: E. coli ATCC25922, >99.99% reduction of growth.
Where [5] appears, read: E. coli ATCC25922, MH II broth, 35 °C, 24 h.
Where [6] appears, read: S. aureus ATCC29213, >99.99% reduction of growth.
The mark [7] stands for this setting: S. aureus ATCC29213, MH II broth, 35 °C, 24 h.
The mark [8] stands for this setting: P. aeruginosa ATCC27853, >99.99% reduction of growth.
Setting [9] is: P. aeruginosa ATCC27853, MH II broth, 35 °C, 24 h.
[10] abbreviates: read-out: IC50 ± SD, MCF-10A (non-cancerous), 24 h, MTT, * precipitation of the complex.
The mark [11] stands for this setting: read-out: IC50 ± SD, MCF-10A (non-cancerous), 48 h, MTT, * precipitation of the complex.
[12] abbreviates: E. faecalis ATCC29212, >99.99% reduction of growth.
The mark [13] stands for this setting: E. faecalis ATCC29212, MH II broth, 35 °C, 24 h.

Values after ≈ are worked out from the molar mass of the structure shown. Where two headings read alike, the source gives them in different places.

`Cc1ccc2cccc(O)c2n1` [MeHQ, 2-methyl-8-hydroxyquinoline, reference compound]: the minimum bactericidal concentration (MBC) against E. coli ATCC25922 (Escherichia coli, ATCC25922) is > 512 µg/mL; against S. aureus ATCC29213 (Staphylococcus aureus, ATCC29213), 128 µg/mL (≈ 804 µM); in the data set with P. aeruginosa ATCC27853 (Pseudomonas aeruginosa, ATCC27853) it was > 512 µg/mL; against E. faecalis ATCC29212 (Enterococcus faecalis, ATCC29212) it was 32 µg/mL (≈ 201 µM). For the same compound, the MIC in the data set with E. coli ATCC25922 (Escherichia coli, ATCC25922, 24 h) turned out to be 32 µg/mL (≈ 201 µM); against S. aureus ATCC29213 (Staphylococcus aureus, ATCC29213, 24 h), 32 µg/mL (≈ 201 µM); in the data set with P. aeruginosa ATCC27853 (Pseudomonas aeruginosa, ATCC27853, 24 h), 256 µg/mL (≈ 1610 µM); against E. faecalis ATCC29212 (Enterococcus faecalis, ATCC29212, 24 h), 32 µg/mL (≈ 201 µM). The IC50 is > 100 µM in the data set on MCF-10A cells (Homo sapiens, MCF-10A, 24 h, read-out: IC50 ± SD); > 100 µM with MCF-10A cells (Homo sapiens, MCF-10A, 48 h, read-out: IC50 ± SD); > 100 µM in the data set with MCF-7 cells (Homo sapiens, MCF7, 24 h); > 100 µM in the data set on MCF-7 cells (Homo sapiens, MCF7, 48 h); 27 ± 2 µM in the data set with HL-60 cells (Homo sapiens, HL-60, 24 h); 18 ± 2 µM in the data set with HL-60 cells (Homo sapiens, HL-60, 48 h). Also, the IC50 is 62 ± 8 µM in the data set on PC-3 cells (Homo sapiens, PC-3, 24 h); > 100 µM in the data set with PC-3 cells (Homo sapiens, PC-3, 48 h); > 100 µM with SKOV-3 cells (Homo sapiens, SK-OV-3, 24 h); > 100 µM in the data set on SKOV-3 cells (Homo sapiens, SK-OV-3, 48 h); > 100 µM in data set [1].

Regarding `C1N2CN3CN1CP(C2)C3.[C-]#[O+].[C-]#[O+].[C-]#[O+].[Re][O]c1cccc2cccnc12` [[Re(CO)3(Q)(PTA)]], in [2], the cytotoxicity result is “moderate activity”.

Take `Cc1cc(C)[nH]n1.[C-]#[O+].[C-]#[O+].[C-]#[O+].[Re][O]c1cccc2cccnc12` [complex 3, [Re(CO)3(Q)Hdmpz]]: the MBC against E. coli ATCC25922 (setting [4]) was >512/>512 mg L^−1; in the data set on S. aureus ATCC29213 (setting [6]), 512/>512 mg L^−1; in the data set with P. aeruginosa ATCC27853 (setting [8]) it was >512/>512 mg L^−1; with E. faecalis ATCC29212 (setting [12]), 512 µg/mL. Besides, the MIC is >512/>512 mg L^−1 with E. coli ATCC25922 (setting [5]), 512/>512 mg L^−1 in the data set on S. aureus ATCC29213 (setting [7]), >512/>512 mg L^−1 against P. aeruginosa ATCC27853 (setting [9]) and 128 µg/mL against E. faecalis ATCC29212 (setting [13]). The “share of the DMSO complex at equilibrium” value in data set [3] (after two days) is listed as 23%. The “share of the Hdmpz complex at equilibrium with the DMSO complex” value in data set [3] (after two days) was found to be 77%. In addition, the “IC50 / activity on normal cells” value with MCF-10A cells (MCF-10A, incubation time not given) is “no activity”. Further, the IC50 is > 100 µM in the data set with MCF-10A cells (read-out: IC50 / activity on normal cells, MCF-10A, incubation time not given); > 100 µM in the data set with MCF-10A cells (setting [10]); > 100 µM in the data set with MCF-10A cells (setting [11]); 19 ± 2 µM in the data set on MCF-7 cells (MCF-7, 24 h, MTT); 29 ± 5 µM in the data set with MCF-7 cells (MCF-7, 48 h, MTT); 7 ± 2 µM in the data set with HL-60 cells (HL-60, 24 h, MTT). Further, the IC50 was determined as 6 ± 1 µM with HL-60 cells (HL-60, 48 h, MTT); 14 ± 2 µM in the data set on PC-3 cells (PC-3, 24 h, MTT); 16 ± 2 µM in the data set on PC-3 cells (PC-3, 48 h, MTT); 32 ± 7 µM in the data set with SKOV-3 cells (SKOV-3, 24 h, MTT); 31 ± 7 µM in the data set on SKOV-3 cells (SKOV-3, 48 h, MTT).

As to `Cc1ccc2cccc([O][Re])c2n1.[C-]#[O+].[C-]#[O+].[C-]#[O+].c1ccc(-c2ccn[nH]2)cc1` [complex 8, [Re(CO)3(MeQ)HPhpz]], the MBC was >512/>512 mg L^−1 with E. coli ATCC25922 (setting [4]), > 512 µg/mL in the data set with S. aureus ATCC29213 (setting [6]), >512/>512 mg L^−1 against P. aeruginosa ATCC27853 (setting [8]) and > 512 µg/mL in the data set with E. faecalis ATCC29212 (setting [12]). Besides, the MIC against E. coli ATCC25922 (setting [5]) is >512/>512 mg L^−1; in the data set with S. aureus ATCC29213 (setting [7]), 128 µg/mL; in the data set with P. aeruginosa ATCC27853 (setting [9]) it was >512/>512 mg L^−1; in the data set on E. faecalis ATCC29212 (setting [13]), 32 µg/mL. Besides, the “share of the DMSO complex” value in data set [3] (after 24 h) was 61%. Moreover, in data set [3] (after 24 h), the “share of the HPhpz complex” value is on record as 39%. In addition, in [3] (immediately after dissolving), the complex amount was determined as 50%. The IC50 with MCF-10A cells (setting [10]) was determined as 36 ± 1 µM; in the data set with MCF-10A cells (setting [11]) it was 21 ± 4 µM; with MCF-7 cells (MCF-7, 24 h, MTT), 68 ± 4 µM; with MCF-7 cells (MCF-7, 48 h, MTT), 53 ± 3 µM; in the data set on HL-60 cells (HL-60, 24 h, MTT) it was 9 ± 1 µM; in the data set with HL-60 cells (HL-60, 48 h, MTT) it was 8 ± 1 µM. In addition, the IC50 is 39 ± 5 µM with PC-3 cells (PC-3, 24 h, MTT); 31 ± 5 µM with PC-3 cells (PC-3, 48 h, MTT); > 100 µM with SKOV-3 cells (SKOV-3, 24 h, MTT); 41 ± 7 µM with SKOV-3 cells (SKOV-3, 48 h, MTT).
